Test results as given in paper PMC6792352, “Limited Chemical Structural Diversity Found to Modulate Thyroid Hormone Receptor in the Tox21 Chemical Library” (Environmental Health Perspectives, 2019).
Where a name gives a salt, the structure may show the parent alone.

assay: in vitro; settings: rat, gh3-tre-luc cells, AC50 (uM) modified / 1000

Structure (SMILES)	CC50 at 24 h [µM]
CCCCN(CCCC)CCC(O)c1cc2c(Cl)cc(Cl)cc2c2cc(C(F)(F)F)ccc12 (stereo not shown) [Halofantrine hydrochloride]	> 20
C=CCCCCCC [1-Octene]	> 90
O=C(O)c1ccc2[nH]cc(CCCCN3CC=C(c4ccccc4)CC3)c2c1 [Carmoxirole]	> 50
CC(=O)OCC(=O)[C@@]1(O)CC[C@H]2[C@@H]3CCC4=CC(=O)C=C[C@]4(C)[C@@]3(F)[C@@H](O)C[C@@]21C [Isoflupredone acetate]	> 20
CC(C)C(=O)OCC(=O)[C@@]12O[C@H](C3CCCCC3)O[C@@H]1C[C@H]1[C@@H]3CCC4=CC(=O)C=C[C@]4(C)[C@H]3[C@@H](O)C[C@@]12C [Ciclesonide]	17.7
CCCCCCCCCCCC(=O)OC[C@@H](O)[C@H]1OC[C@H](O)[C@H]1O [Sorbitan monododecanoate]	> 50
CC/C=C\C/C=C\C/C=C\CCCCCCCC(=O)O [Linolenic acid]	> 90
O=C(O)Cc1sc(-c2ccccc2)nc1-c1ccc(Cl)cc1 [Fentiazac]	> 50
CC(N)CCCC(C)(C)O (stereo not shown) [Heptaminol hydrochloride]	> 50
CCCCCCOC(=O)c1ccc(O)cc1 [Hexylparaben]	56.8
CC(=O)OC(C(=O)c1ccccc1)c1ccccc1 (stereo not shown) [Benzoin acetate]	> 90
Cc1nn(-c2cc(NS(C)(=O)=O)c(Cl)cc2Cl)c(=O)n1C(F)F [Sulfentrazone]	> 90
CCc1cc(OC)c(C[C@H](C)N)cc1OC [(+)-2,5-Dimethoxy-4-ethylamphetamine hydrochloride]	35.7
COc1cc(Nc2c(C#N)cnc3cc(OCCCN4CCN(C)CC4)c(OC)cc23)c(Cl)cc1Cl [Bosutinib methanoate]	8.85
Nc1ccccc1S(=O)(=O)c1ccccc1 [2-(Phenylsulfonyl)aniline]	> 90
CCCCCCCCSCC [Ethyl octyl sulfide]	> 90
CCCCCC#CC(=O)OC [Methyl 2-octynoate]	> 90
O=[N+]([O-])c1ccccc1 [Nitrobenzene]	> 90
O=C1C(=O)c2ncccc2-c2cccnc21 [Phanquinone]	1.78
C=C(C)C(=O)OCCN(CC)CC [2-(Diethylamino)ethyl methacrylate]	> 90

Structure (SMILES)	CC50 at 24 h [µM]
N#Cc1cccc(C#N)c1 [1,3-Benzenedicarbonitrile]	> 90
CC(O)COC(C)(C)C (stereo not shown) [1-tert-Butoxy-2-propanol]	> 90
CO/N=C(\C(=O)N[C@@H]1C(=O)N2C(C(=O)OCOC(=O)C(C)(C)C)=C(C)CS[C@H]12)c1csc(N)n1 [Cefetamet pivoxil HCl]	> 50
N#CCN(CC#N)CCN(CC#N)CC#N [(Ethylenedinitrilo)tetraacetonitrile]	> 90
CCCCOC(=O)c1ccccc1C(=O)O [Monobutyl phthalate]	> 90
Brc1c(Br)c(Br)c(Br)c(Br)c1Br [Hexabromobenzene]	> 5
CC1=CC(=O)CCC1 [3-Methyl-2-cyclohexen-1-one]	> 90
CC(C)(C)S [2-Methyl-2-propanethiol]	> 90
CCOC(=O)C(C)(C)Oc1ccc(Cl)cc1 [Clofibrate]	> 90
Nc1nc2c(ncn2CCC(CO)CO)c(=O)[nH]1 [Penciclovir]	> 50
CN(C)CCOCCN(C)C [Bis[2-(dimethylamino)ethyl]ether]	> 90
CCCCC(C)C(=O)O (stereo not shown) [2-Methylhexanoic acid]	> 90
CN1CCC[C@@H]1c1cccnc1 [D-Nicotine]	> 50
O=c1[nH]cnc2[nH]cc(CN3CCCCC3)c12 [5-(Piperidin-1-ylmethyl)-3,7-dihydro-4H-pyrrolo[2,3-d]pyrimidin-4-one]	> 50
CCC(=C(CC)c1ccc(O)cc1)c1ccc(O)cc1 [(Z,E)-Diethylstilbestrol]	12.2
CCCCCCCCCCCCCC(=O)O [Tetradecanoic acid]	> 90
CC(C)CCCC(C)CC=O (stereo not shown) [3,7-Dimethyloctanal]	> 90
Oc1cc(O)c(Cl)cn1 [Gimeracil]	> 50
CN(C)c1ccc(N(C)C)cc1 [N,N,N',N'-Tetramethyl-p-phenylenediamine]	58.6
CC(C)[C@H](N)C(=O)OCC(CO)OCn1cnc2c(=O)nc(N)[nH]c21 (stereo partly shown) [Valganciclovir hydrochloride]	> 50

Structure (SMILES)	CC50 at 24 h [µM]
O=C1O[C@H]([C@@H](O)CO)C(O)=C1O [L-Ascorbic acid]	> 90
COc1ccc2cc(S(=O)(=O)N[C@H](CC(=O)N[C@H](Cc3ccc(CN4[C@H](C)CCC[C@@H]4C)cc3)C(=O)N(C)C(C)C)c3ccc4c(c3)OCO4)ccc2c1 [SSR 240612]	4.04
CC(C)COC(=O)CCCCC(=O)OCC(C)C [Diisobutyl adipate]	> 90
N[C@@H](CS)C(=O)O [l-Cysteine hydrochloride]	> 90
OCCOCCOCCO [Triethylene glycol]	> 100
CCCC(=O)OC[C@@H](OC(=O)CCC)[C@@H](OC(=O)CCC)[C@H](Cn1c2nc(=O)[nH]c(=O)c-2nc2cc(C)c(C)cc21)OC(=O)CCC [Riboflavin tetrabutyrate]	> 50
CN1[C@@H]2CC[C@H]1C[C@@H](OC(=O)c1cc(Cl)cc(Cl)c1)C2 [MDL 72222]	35.2
C=C(C)C(=O)OCCCCCCCCCCOC(=O)C(=C)C [1,10-Decanediol dimethacrylate]	> 90
Cc1ccc(-c2nc3ccc(C)cn3c2CC(=O)N(C)C)cc1 [Zolpidem]	> 50
Cc1cc(C(C)(C)C)cc(C)c1CC1=NCCN1 [Xylometazoline hydrochloride]	> 20
Fc1cccc(Cl)c1CCl [1-Chloro-2-(chloromethyl)-3-fluorobenzene]	> 90
ClCC1CO1 (stereo not shown) [Epichlorohydrin]	> 90
Oc1cccc2cc3cccc(O)c3c(O)c12 [1,8,9-Trihydroxyanthracene]	> 90
CC1=CCCC(C)(C)C12CCC(C)O2 (stereo not shown) [Theaspirane]	> 90
C=CCCCCCCCCCCCC [1-Tetradecene]	> 90
COC(=O)N(C(=O)N1CO[C@@]2(C(=O)OC)Cc3cc(Cl)ccc3C2=N1)c1ccc(OC(F)(F)F)cc1 [Indoxacarb]	> 70
CCCCCCCCOC(=O)c1ccccc1C(=O)OCCCCCCCC [Di-n-octyl phthalate]	> 90
C[C@H]1c2cccc(O)c2C(=O)C2=C(O)[C@]3(O)C(=O)C(C(N)=O)=C(O)[C@@H](N(C)C)[C@@H]3[C@@H](O)[C@@H]21 [Doxycycline hydrochloride]	> 50
COC(=O)CCC(=O)O [Monomethyl succinate]	> 90
CCCCCC[C@@H](CCC)C(=O)O [(2R)-2-Propyloctanoic acid]	> 50

same assay, conditions: rat, gh3-tre-luc cells, AC50 (uM) modified / 1000, Tox21_110001=Tox21_112042; viability, 1 nM T3 present, 24 h

Structure (SMILES)	CC50 at 24 h [µM]
CC(=O)[C@H]1CC[C@H]2[C@@H]3CC[C@@H]4C[C@H](O)CC[C@]4(C)[C@H]3CC[C@]12C [Eltanolone]	> 50

same assay, conditions: rat, gh3-tre-luc cells, AC50 (uM) modified / 1000, Tox21_110001=Tox21_112402; viability, 1 nM T3 present, 24 h

Structure (SMILES)	CC50 at 24 h [µM]
CC(=O)OO [Peracetic acid]	> 50

same assay, conditions: rat, gh3-tre-luc cells, AC50 (uM) modified / 1000, Tox21_110001=Tox21_113158; viability, 1 nM T3 present, 24 h

Structure (SMILES)	CC50 at 24 h [µM]
C[C@]1(O)CC[C@H]2[C@@H]3CCC4=CC(=O)CC[C@]4(C)[C@@]3(F)[C@@H](O)C[C@@]21C [Fluoxymestrone]	> 50

same assay, conditions: rat, gh3-tre-luc cells, AC50 (uM) modified / 1000, Tox21_110001=Tox21_200060; viability, 1 nM T3 present, 24 h

Structure (SMILES)	CC50 at 24 h [µM]
CC(=O)C(C)(C)C [3,3-Dimethyl-2-butanone]	> 100

same assay, conditions: rat, gh3-tre-luc cells, AC50 (uM) modified / 1000, Tox21_110001=Tox21_200121; viability, 1 nM T3 present, 24 h

Structure (SMILES)	CC50 at 24 h [µM]
Brc1cccc(-c2ccccc2)c1 [3-Bromobiphenyl]	> 90

same assay, conditions: rat, gh3-tre-luc cells, AC50 (uM) modified / 1000, Tox21_110001=Tox21_200205; viability, 1 nM T3 present, 24 h

Structure (SMILES)	CC50 at 24 h [µM]
CC(Cl)Cl [1,1-Dichloroethane]	> 90

same assay, conditions: rat, gh3-tre-luc cells, AC50 (uM) modified / 1000, Tox21_110001=Tox21_200854; viability, 1 nM T3 present, 24 h

Structure (SMILES)	CC50 at 24 h [µM]
C[C@]1(O)CC[C@H]2[C@@H]3CCC4=CC(=O)CC[C@]4(C)[C@@]3(F)[C@@H](O)C[C@@]21C [Fluoxymestrone]	> 90

same assay, conditions: rat, gh3-tre-luc cells, AC50 (uM) modified / 1000, Tox21_110001=Tox21_201112; viability, 1 nM T3 present, 24 h

Structure (SMILES)	CC50 at 24 h [µM]
CC(Cl)(Cl)C(=O)O [Dalapon-sodium]	> 90

same assay, conditions: rat, gh3-tre-luc cells, AC50 (uM) modified / 1000, Tox21_110001=Tox21_201254; viability, 1 nM T3 present, 24 h

Structure (SMILES)	CC50 at 24 h [µM]
O=P(OCCCl)(OCCCl)OCCCl [Tris(2-chloroethyl) phosphate]	> 90

same assay, conditions: rat, gh3-tre-luc cells, AC50 (uM) modified / 1000, Tox21_110001=Tox21_201511; viability, 1 nM T3 present, 24 h

Structure (SMILES)	CC50 at 24 h [µM]
O=P(Oc1ccccc1)(Oc1ccccc1)Oc1ccccc1 [Triphenyl phosphate]	> 90

same assay, conditions: rat, gh3-tre-luc cells, AC50 (uM) modified / 1000, Tox21_110001=Tox21_201664; viability, 1 nM T3 present, 24 h

Structure (SMILES)	CC50 at 24 h [µM]
CC(C)OC(=O)Nc1ccccc1 [Propham]	> 90

same assay, conditions: rat, gh3-tre-luc cells, AC50 (uM) modified / 1000, Tox21_110001=Tox21_202075; viability, 1 nM T3 present, 24 h

Structure (SMILES)	CC50 at 24 h [µM]
O=C(CCl)c1ccccc1 [2-Chloroacetophenone]	> 90

same assay, conditions: rat, gh3-tre-luc cells, AC50 (uM) modified / 1000, Tox21_110001=Tox21_300045; viability, 1 nM T3 present, 24 h

Structure (SMILES)	CC50 at 24 h [µM]
O=C(CCl)c1ccccc1 [2-Chloroacetophenone]	62.3

same assay, conditions: rat, gh3-tre-luc cells, AC50 (uM) modified / 1000, Tox21_110001=Tox21_300398; viability, 1 nM T3 present, 24 h

Structure (SMILES)	CC50 at 24 h [µM]
CCOP(=S)(OCC)SCSCC [Phorate]	> 90

same assay, conditions: rat, gh3-tre-luc cells, AC50 (uM) modified / 1000, Tox21_110001=Tox21_301004; viability, 1 nM T3 present, 24 h

Structure (SMILES)	CC50 at 24 h [µM]
CSc1nc(N=[N+]=[N-])nc(NC(C)C)n1 [Aziprotryne]	> 90

same assay, conditions: rat, gh3-tre-luc cells, AC50 (uM) modified / 1000, Tox21_110001=Tox21_301903; viability, 1 nM T3 present, 24 h

Structure (SMILES)	CC50 at 24 h [µM]
COP(=S)(Oc1cc(Cl)c(Br)cc1Cl)c1ccccc1 (stereo not shown) [Leptophos]	72.3
